Assay results reported in US7176226B2, “Crystal modification II of 2-[2-(1-chloro-cyclopropyl)-3-(2-chlorophenyl)-2-hydroxy-propyl]-2,4-dihydro-3H-1,2,4-triazole-3-thione” (Bayer Cropscience AG, priority 2002, dated 2007).

Columns and labels:
[1] = thermodynamic stability of the crystal forms; conditions: for thermodynamic stability of the crystal form: at room temperature
[2] = particle density of the crystal forms (Ultrapyknometer, or from single crystal X-ray structural analysis); type: physicochemical; conditions: for Density, calculated from SCA: calculated from single crystal X-ray structural analysis (SCA); for Density, experimental: method SOP 5024, Ultrapyknometer 1000 T
Protocol: A DSC Pyris 1 from Perkin Elmer was used to determine the melting points. The measurements were carried out using a heating rate of 10 K min^−1. In each case, the given melting points refer to the peak maximum under the given conditions. The Raman spectra of the crystal forms were recorded using an RFS 100/S FT-Raman from Bruker (128 scans per measurement). The particle density was determined experimentally according to method SOP 5024 for determining densities using the Ultrapyknometer 1000 T from Quanta-Chrome or theoretically from the single crystal. X-ray structural analysis (SCA). The single crystal X-ray structural analysis was carried out using a P4RA four-cycle diffractometer from Siemens with rotating anode generator, graphite monochromator, scintillation counter and low-temperature unit. Measurement was carried out using molybdenum radiation of a wavelength of 0.71073 (MoKα).

Structure (SMILES) | thermodynamic stability of the crystal form [1] | temperature below which the crystal form is stable ([1]; pressure of 1013 mbar) | Density, calculated from SCA [2] [Mg/m^3] | Density, experimental [2] [Mg/m^3]
OC(Cc1ccccc1Cl)(Cn1nc[nH]c1=S)C1(Cl)CC1 (stereo not shown) [form II, 2-[2-(1-chlorocyclopropyl)-3-(2-chlorophenyl)-2-hydroxypropyl]-2,4-dihydro-3H-1,2,4-triazole-3-thione] | thermodynamically stable | below 90 °C | 1.471 | 1.43
OC(Cc1ccccc1Cl)(Cn1nc[nH]c1=S)C1(Cl)CC1 (stereo not shown) [form I, 2-[2-(1-chlorocyclopropyl)-3-(2-chlorophenyl)-2-hydroxypropyl]-2,4-dihydro-3H-1,2,4-triazole-3-thione, reference compound] | metastable | – | 1.432 | 1.39
